{
  "source": "patent US11166924B2",
  "about": "“N-methyl-d-aspartate receptor allosteric modulators and methods for their use” (Qingdao Primedicine Pharmaceutical Company, Ltd., priority 2016, dated 2021)",
  "key": {"[1]": {"tested_on": "CREB phosphorylation (pCREB)", "test": "CREB phosphorylation (pCREB) immunoblotting in cortical neurons", "type": "cell-based, rat", "details": "presence or absence of ifenprodril; FIG. 15a", "description": "Dissociated cultures of rat cortical neurons were prepared from 18 day-old Sprague Dawley rat embryos as described previously. To obtain mixed cortical cultures enriched with neurons, uridine (10 μM) and 5-Fluor-2′-deoxyuridine (10 μM) were added to the culture medium at 3 days in vitro (DIV) and maintained for 48 h to inhibit non-neuronal cell proliferation before the cultures were returned to the normal culture medium. Mature neurons (11-14 DIV) were used for experiments. Mouse cortical cultures were prepared using embryos at 18 days post-coitum from litters resulting from heterozygote GluN2A+/− or GluN2B+/− matings. To obtain homozygous and wild-type (WT) littermate control neuronal cultures, cortical cells from individual embryos were plated separately. Genotyping was performed as described previously using tail samples collected from each embryo. To induce neuronal apoptosis, cortical cultures were stimulated with NMDA (50 μM) and glycine (10 μM) for 20 min, or STS (100 nM) for 1 h in Mg2+-free extracellular solution (ECS) containing the following (in mM): 25 HEPES acid, 140 NaCl, 33 glucose, 5.4 KCl, and 1.3 CaCl2, with pH 7.35 and osmolarity 320-330 mOsm. […]"}, "[2]": {"biological_target": "T1, GluN2B NMDARs in hippocampal slices (Mus musculus, UniProt P35438+Q01097)", "T1 construct": "from tissue; host or cells: mouse hippocampal slices, CA1 pyramidal neurons", "T1 sequence (Q01097 27-1482, other chains not shown)": "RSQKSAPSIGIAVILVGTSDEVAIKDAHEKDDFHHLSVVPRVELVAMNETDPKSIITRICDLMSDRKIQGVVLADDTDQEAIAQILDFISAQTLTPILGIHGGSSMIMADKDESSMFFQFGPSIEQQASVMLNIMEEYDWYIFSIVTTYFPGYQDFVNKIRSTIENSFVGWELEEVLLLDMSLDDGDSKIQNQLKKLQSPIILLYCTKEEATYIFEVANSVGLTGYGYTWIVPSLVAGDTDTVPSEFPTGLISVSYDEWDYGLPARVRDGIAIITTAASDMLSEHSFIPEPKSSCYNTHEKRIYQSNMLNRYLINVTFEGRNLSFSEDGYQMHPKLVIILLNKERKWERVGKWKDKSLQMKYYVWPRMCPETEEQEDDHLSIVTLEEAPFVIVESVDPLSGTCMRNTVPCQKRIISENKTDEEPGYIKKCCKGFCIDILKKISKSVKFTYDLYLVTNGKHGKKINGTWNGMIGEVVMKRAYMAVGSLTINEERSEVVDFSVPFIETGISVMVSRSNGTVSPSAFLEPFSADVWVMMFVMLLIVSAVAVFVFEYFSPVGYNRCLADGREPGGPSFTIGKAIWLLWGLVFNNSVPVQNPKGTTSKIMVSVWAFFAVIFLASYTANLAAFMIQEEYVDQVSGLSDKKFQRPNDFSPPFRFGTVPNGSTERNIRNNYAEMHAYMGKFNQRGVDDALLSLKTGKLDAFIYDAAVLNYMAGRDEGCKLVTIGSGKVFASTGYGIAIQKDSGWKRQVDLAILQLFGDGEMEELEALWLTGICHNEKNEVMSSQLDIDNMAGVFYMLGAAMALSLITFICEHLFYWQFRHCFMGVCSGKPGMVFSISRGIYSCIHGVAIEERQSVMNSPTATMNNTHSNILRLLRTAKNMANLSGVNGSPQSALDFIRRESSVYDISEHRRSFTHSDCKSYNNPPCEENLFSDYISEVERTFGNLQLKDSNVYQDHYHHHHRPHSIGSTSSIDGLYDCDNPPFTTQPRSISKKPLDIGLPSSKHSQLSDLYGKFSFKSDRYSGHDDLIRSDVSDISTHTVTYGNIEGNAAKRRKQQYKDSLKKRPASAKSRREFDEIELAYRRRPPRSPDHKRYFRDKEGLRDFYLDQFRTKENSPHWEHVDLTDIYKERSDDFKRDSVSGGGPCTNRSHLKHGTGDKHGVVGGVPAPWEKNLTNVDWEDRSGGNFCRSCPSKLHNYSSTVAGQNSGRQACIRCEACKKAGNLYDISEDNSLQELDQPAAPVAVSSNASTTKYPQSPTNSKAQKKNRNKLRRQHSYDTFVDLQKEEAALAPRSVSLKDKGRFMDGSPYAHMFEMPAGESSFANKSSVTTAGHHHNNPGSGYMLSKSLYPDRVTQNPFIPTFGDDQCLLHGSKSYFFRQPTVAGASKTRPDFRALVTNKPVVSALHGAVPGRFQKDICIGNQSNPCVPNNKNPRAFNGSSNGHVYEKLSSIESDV", "test": "Slice recordings, GluN2B component of synaptic NMDAR currents", "details": "FIG. 18", "text": "6-8 week old C57/Bl6 mice or rats underwent cervical dislocation followed by decapitation. The brain was immediately transferred to an ice cold NMDG-based cutting solution consisting of: (in mM): 120 NMDG, 2.5 KCl, 1.2 NaH2PO4, 25 NaHCO3, 1.0 CaCl2, 7.0 MgCl2, 2.4 Na-pyruvate, 1.3 Na-ascorbate, 20 D-glucose with pH adjusted to 7.35 using HCl acid (unless stated, all chemicals and drugs were purchased from Sigma or BioShop, Canada). The hippocampus was dissected out and transverse hippocampal slices (400 μm) were obtained using a manual tissue chopper (Stoelting, Wood Dale, Ill., USA). Slices recovered in a heated (30° C.) incubating chamber for 1 hr which contained ACSF composed of (in mM): 124 NaCl, 3 KCl, 1.25 NaH2PO4, 1 MgSO47H2O, 2 CaCl2), 26 NaHCO3 and 15 D-glucose which was bubbled continuously with carbogen (95% O2/5% CO2) (pH to 7.3). After 30 additional minutes at room temperature, slices were transferred to a submerged recording chamber and were perfused continuously with carbogenated ACSF (2-3 ml/min). Whole-cell recordings of CA1 pyramidal neurons were performed using the “blind” method with a MultiClamp 700B amplifier. EPSCs (excitatory post synaptic currents) were elicited by stimulating the SC pathway. For isolation of NMDAR currents, cells were voltage clamped at +40 mV. […]"}, "[3]": {"tested_on": "CREB phosphorylation (pCREB) on Serine 133", "test": "pCREB levels in hippocampal slices", "parameters": "species or system rat", "details": "10 μM; 30 min exposure; FIG. 21", "description": "Male Sprague Dawley rats 4-8 weeks old (125-200 gm) were decapitated, and their brains were dissected rapidly and placed into ice-cold chopping saline [containing (in mM): 110 sucrose, 60 NaCl, 3 KCl, 1.25 NaH2PO4, 28 NaHCO3, 5 D-glucose, 0.5 CaCl2, 7 MgCl2, and 0.6 ascorbate, saturated with 95% O2/5% CO2]. Then 400 μm transverse slices were prepared with a Vibratome Series 1000 (Pelco, Ted Pella, Redding, Calif.). Slices were transferred immediately into a 1:1 mix of chopping saline and normal ACSF [containing (in mM): 125 NaCl, 2.5 KCl, 1.25 NaH2PO4, 25 NaHCO3, 10 D-glucose, 2 CaCl2, and 1 MgCl2, saturated with 95% O2/5% CO2] and maintained at room temperature for at least 90 min. Then the slices were transferred to ACSF at 32° C. in a submersion chamber for 45-60 min before pharmacological stimulation.\nBrain tissues or cultured cells were lysed on ice in the lysis buffer and then the solution was centrifuged at 14,000 rpm for 10 min at 4° C. Next, the supernatant was collected and protein concentrations were determined using a BCA protein assay kit (Thermo Scientific, 23227). […] The band density of each protein was quantified by the Bio-Rad Quantity One software and the relative optical density was analyzed relative to loading total-CREB on the same membrane. […]"}},
  "data": [
    {"smiles": "CCOc1cc(Cl)c(Cl)c(/C=N/NC(=O)c2ccccc2Br)c1O", "note": "[Npam43, (E)-2-bromo-N′-(2,3-dichloro-5-ethoxy-6-hydroxybenzylidene)benzohydrazide]", "values": [
      {"measurement": "CREB phosphorylation (pCREB)", "setting": "[1]", "result": "increases"},
      {"measurement": "Effect on GluN2B NMDARs", "setting": "[2]", "result": "no effects on the GluN2B NMDARs"},
      {"measurement": "pCREB levels in hippocampal slices", "setting": "[3]", "result": "significantly enhanced pCREB levels"}
    ]}
  ]
}
